Entries after “also recorded” stand apart in the source; their conditions may differ.
Tests used:
[1] = test system: EcoRI and Taq1 digested SV40 DNA; experiment: DNA crosslinking, EcoRI/Taq I digested SV40 DNA, alkaline agarose gel; format: binding; settings: 0.5 and 1 μM, 37° C., 17 hours
Experimental: Isolated SV40 DNA (Gibco BRL) was digested with EcoRI (3 units/μg DNA) (Promega #R6011) at 37° C. for two hours, and concentrated through a spin column (Microcon 50, Amicon, Inc.). The EcoRI digested SV40 DNA was then digested with Taq I (3 units/μg DNA) (Promega #6151) at 65° C. for an additional 2 hours. After digestion, DNA was extracted once with phenol/chloroform/isoamyl alcohol (25:24:1), and once with chloroform/isoamyl alcohol (24:1). The digested DNA was then labelled on the 5' end with ^32 P using the DuPont/NEN T4 polynucleotide kinase 5' end labelling system and […]. Labelled DNA was loaded onto a pre-equilibrated Sephadex 25 spin purification column (Quick-spin, Boehringer-Mannheim Biochemicals) and eluted into 400 μl TE (20 mM Tris HCl, 1 mM EDTA). Eluted DNA was ethanol precipitated overnight at -20° C. and spun in an Eppendorf microcentrifuge for 1 hour at 4° C., 14,000 rpm.
Precipitated DNA was suspended in TE (20 mM Tris HCl, pH 8, 1 mM EDTA) at approximately 0.1 μg/μl and incubated at 37° C. for 17 hours in a 50 μl volume with 0, 0.5, 1.0, 1.5 or 2 μM compound 21. Following drug treatment, DNA was again ethanol precipitated, spun down, dried briefly and suspended in 20 μl water. […]

[2] = test system: Murine B16 melanoma cell line; experiment: In vitro growth inhibition (MTT), B16 melanoma; format: cell-based; settings: MTT, 3 days
Excerpt: (§1) P388 murine leukemic cell line was obtained from the DCT Tumor Repository (National Cancer Institute, Frederick Cancer Research and Development, Frederick Md. 21702). HT29 Human Colon Carcinoma cell line was obtained from the American Type Culture Collection (12301 Parklawn Drive, Rockville, Md. 20852). B16 Melanoma cell line was obtained from DuPont Merck Pharmaceutical Company (Glenolden, Pa. 19036). MCF-7 Human Breast Carcinoma cell line was a gift from Dr. K. Osborne (Department of Medicine, The University of Texas Health Science Center at San Antonio, San Antonio, Tex. 78284). All cell lines were incubated at 37° C. in a humidified atmosphere of 5% CO2 -95% air. Murine B16 melanoma cell line was grown in RPMI 1640 medium supplemented with 10% heat-inactivated fetal bovine serum, 2 mM L-glutamine, 50 units/ml penicillin, 50 μg/ml streptomycin, 25 μg/ml gentamycin, 0.75% sodium bicarbonate, 10 mM HEPES buffer (pH 7.4), and 0.06 mg/ml AntiPPLO. Murine P388 leukemic and the human HT-29 colon adenocarcinoma cell lines were maintained in RPMI 1640 medium supplemented with 10% heat-inactivated fetal bovine serum. MCF-7M human breast adenocarcinoma was maintained in IMEM medium supplemented with 5% non heat-inactivated fetal bovine serum and 1 nM insulin.
(§2) Exponentially growing cells (1-2×10^3 cells, unless specified otherwise) in 0.1 ml medium were seeded on day 0 in a 96-well microtiter plate. On day 1, 0.1 ml aliquots of medium containing graded concentrations of test compounds were added in duplicate to the cell plates. After incubation at 37° C. in a humidified incubator for 3 days (P388, B16) or 6 days (HT-29, MCF-7M), the plates were centrifuged briefly and 100 μl of the growth medium was removed. Cell cultures were incubated with 50 μl of 3-(4,5-dimethylthiazol-2-yl)-2,5-diphenyl-tetrazolium bromide [MTT, 1 mg/ml in Dulbecco's phosphate buffered saline (PBS)] for 4 hr at 37° C. The resulting purple formazan precipitate was solubilized with 200 μl of 0.04N HCl in isopropyl alcohol. Absorbance was monitored in a BioRad Model 3550 Microplate Reader at a test wavelength of 570 nm and a reference wavelength of 630 nm. The absorbance was transferred to a PC 486 computer. The IC50 values were determined by a computer program (EZ-ED50) that fit all of the data to the following four-parameterlogistic equation:
(§3) Y=((Am -Ao)/(1+(X/IC50)^n))+Ao
(§4) where Am is the absorbance of control cells, Ao is the absorbance of cells in the presence of highest agent concentration, Y is the observed absorbance, X is the agent concentration, IC50 is the concentration of agent that inhibits the cell growth by 50% of control cells (based on the absorbance) and n is the slope of the curve.

[3] = test system: P388 murine leukemic cell line; experiment: In vitro growth inhibition (MTT), P388 leukemia; format: cell-based; settings: 3 days
Excerpt: as §1, §2, §3, §4

8-(3'-nitro-1',8'-naphthalimide)-3,6-diazaoctylamine dichloroplatinum(II) [Compound 21]
formation of DNA cross links (in words) [1]: formation of higher molecular weight DNA, around 4.6 and 5.8 Kb; also recorded: cross-linked DNA of 4.6-5.8 Kb
IC50 [2]: 385 nM
IC50 [3]: 302 nM

— patent US5561042A, “Diamine platinum naphthalimide complexes as antitumor agents” (Cancer Therapy and Research Center, priority 1995, dated 1996)
